Measurements reported in patent US20020137154A1, “Methods for improving cell growth and alcohol production during fermentation” (priority 2000, published 2002).

Test system: recombinant Escherichia coli KO11
Experiment: Batch fermentation of E. coli KO11 in Luria broth and xylose with nutrient additives: ethanol production and cell growth
Type: cell-based
Conditions: LB+xylose
Procedure: Two types of media were tested: 1% CSL and Luria broth (LB). Each contained 97 g of either xylose or glucose per liter. Luria Broth consists of, per liter: 10 g Difco® Tryptone, 5 g Difco® Yeast Extract and 5 g NaCl. The 1% CSL medium consists of Corn Steep Liquor (1% w/v) plus mineral salts (mineral salts per liter: 1 g of KH2PO4. 0.5 g of K2HPO4, 3.1 g of (NH4)2SO4, 0.4 g of MgCl2·6H2), and 20 mg FeCl3·6H2O).
Luria Broth was prepared by autoclaving a 2× nutrient stock containing, per liter: 20 g Difco® Tryptone, 10 g Difo® Yeast Extract, and 10 g NaCl. Sugars (xylose or glucose) were autoclaved separately. A 1% CSL medium was prepared as follows: Commercial Corn Steep Liquor (CSL; 50% dry weight/50% water) was diluted with tap water to make a 20X stock containing 100 g dry weight of Corn Steep Liquor/L and was adjusted to pH 7.2 with NaOH (50%). After sterilization by autoclaving, the 20X CSL stock was clarified by centrifugation at 5000×g for 10 minutes. Magnesium was added as a 100× stock solution (40 g/L MgCl2·6H2O). Iron was added as a 1000× stock solution made by dissolving 20 g FeCl3·6H2O in 175 mL of HCl and adjusting to 1 L with sterile water. Nitrogen, sulfur and phosphorus were added using a 20× stock solution containing the following (per liter): 20 g of KH2PO4, 10 g of K2HPO4 and 62 g of (NH4)2SO4. Stock solutions containing minerals were sterilized separately by autoclaving. Final media was prepared by adding 750 mL of water to 1 L bottle containing 100 g of xylose or glucose.
Inocula were grown in same media used for fermentation and were prepared as follows. Three colonies from a fresh plate were used to inoculate seed cultures: 250-mL flask containing 100 mL medium. These cultures were grown with agitation (120 rpm) for 12-16 hours at 35° C. to a final OD550nm of approximately 2.0-2.5. Cells were harvested by centrifugation at 5000×g for 5 minutes, and resuspended in fresh media to an OD550nm of 0.1. The resulting suspension was distributed into 500-mL beakers containing 345 ml each of fermentation medium. Acetaldehyde was added as indicated. Batch fermentations (35° C., 100 rpm) were maintained at pH 6.5 by the automatic addition of 2N KOH. Cell mass, ethanol, and base addition (2N KOH) were recorded during 96 hours of incubation.
Equivalent amounts of distilled water were added instead of the acetaldehyde in control experiments.
Additives (e.g., as listed in Table 1) were dissolved in 5 mL di-H2O. Solutions with pH lower than 5 were neutralized to pH 6.5 with 2N KOH. Nutritional supplements were then filter-sterilized (0.45 μm filter disk) directly into the fermentation vessel containing the culture. The final concentration of all additives in the culture medium was 2 g/L unless otherwise indicated.
Cell mass was estimated by measuring OD550nm using Baush & Lomb® Spectronic 70 spectrophotometer. […] Ethanol was measured by gas chromatography using a Varian® 3400 CX gas chromatograph with 1-propanol as an internal standard.
Tables 1, 3, and 5 show time to completion of fermentation, ethanol production, and volumetric productivity of the fermentation for all concentrations of the compound and the control. Maximum ethanol production is shown in grams/liter (g/L). The ethanol yield is shown in grams of ethanol/grams of added sugar. Maximum volumetric productivity is shown in grams ethanol/(liter)(hour). The average productivity is calculated form the start of fermentation to the completion of fermentation is grams ethanol/(liter)hour).
Tables 2, 4, and 6 show the initial growth of the cells (OD taken after the first 24 hours of fermentation) and the maximum cell density (the time which culture reaches the maximum OD value).
Acetaldehyde was added to the fermentation medium at five different concentrations and time points. […] Where two additions are indicated, the first volume was added at the start of fermentation and the second was added after 8 hours of fermentation.

CC=O [Acetaldehyde, acetaldehyde]
Ethanol Production Maximum (0.25 g/L at start): 43.80 g/L
Ethanol Production Maximum % Control (0.25 g/L at start): 101.68%
Ethanol yield (0.25 g/L at start): 0.451 grams of ethanol/grams of added sugar
Initial Growth (OD at 24 h) % Control (0.25 g/L at start): 110.79%
Initial Growth (OD at 24 h) OD (0.25 g/L at start): 11.07 OD
Maximum Cell Density % Control (0.25 g/L at start): 100.20%
Maximum Cell Density OD (0.25 g/L at start): 11.07 OD
Maximum Cell Density Time (0.25 g/L at start): 24 h
Time to completion (0.25 g/L at start): 48 h
Volumetric Productivity Average (0.25 g/L at start): 0.913 grams ethanol/(liter)(hour)
Volumetric Productivity Average % Control (0.25 g/L at start): 101.68%
Volumetric Productivity Maximum (0.25 g/L at start): 1.352 grams ethanol/(liter)(hour)
Volumetric Productivity Maximum % Control (0.25 g/L at start): 117.36%
Ethanol Production Maximum (0.5 + 0.25 g/L (start, 8 h)): 41.40 g/L
Ethanol Production Maximum % Control (0.5 + 0.25 g/L (start, 8 h)): 96.11%
Ethanol yield (0.5 + 0.25 g/L (start, 8 h)): 0.426 grams of ethanol/grams of added sugar
Initial Growth (OD at 24 h) % Control (0.5 + 0.25 g/L (start, 8 h)): 99.02%
Initial Growth (OD at 24 h) OD (0.5 + 0.25 g/L (start, 8 h)): 9.89 OD
Maximum Cell Density % Control (0.5 + 0.25 g/L (start, 8 h)): 97.92%
Maximum Cell Density OD (0.5 + 0.25 g/L (start, 8 h)): 10.81 OD
Maximum Cell Density Time (0.5 + 0.25 g/L (start, 8 h)): 48 h
Time to completion (0.5 + 0.25 g/L (start, 8 h)): 48 h
Volumetric Productivity Average (0.5 + 0.25 g/L (start, 8 h)): 0.863 grams ethanol/(liter)(hour)
Volumetric Productivity Average % Control (0.5 + 0.25 g/L (start, 8 h)): 96.11%
Volumetric Productivity Maximum (0.5 + 0.25 g/L (start, 8 h)): 0.904 grams ethanol/(liter)(hour)
Volumetric Productivity Maximum % Control (0.5 + 0.25 g/L (start, 8 h)): 78.52%
Ethanol Production Maximum (0.5 + 0.5 g/L (start, 8 h)): 41.64 g/L
Ethanol Production Maximum % Control (0.5 + 0.5 g/L (start, 8 h)): 96.65%
Ethanol yield (0.5 + 0.5 g/L (start, 8 h)): 0.429 grams of ethanol/grams of added sugar
Initial Growth (OD at 24 h) % Control (0.5 + 0.5 g/L (start, 8 h)): 106.98%
Initial Growth (OD at 24 h) OD (0.5 + 0.5 g/L (start, 8 h)): 10.68 OD
Maximum Cell Density % Control (0.5 + 0.5 g/L (start, 8 h)): 106.68%
Maximum Cell Density OD (0.5 + 0.5 g/L (start, 8 h)): 11.78 OD
Maximum Cell Density Time (0.5 + 0.5 g/L (start, 8 h)): 48 h
Time to completion (0.5 + 0.5 g/L (start, 8 h)): 48 h
Volumetric Productivity Average (0.5 + 0.5 g/L (start, 8 h)): 0.867 grams ethanol/(liter)(hour)
Volumetric Productivity Average % Control (0.5 + 0.5 g/L (start, 8 h)): 96.65%
Volumetric Productivity Maximum (0.5 + 0.5 g/L (start, 8 h)): 0.890 grams ethanol/(liter)(hour)
Volumetric Productivity Maximum % Control (0.5 + 0.5 g/L (start, 8 h)): 77.26%
Ethanol Production Maximum (0.5 g/L at start): 42.59 g/L
Ethanol Production Maximum % Control (0.5 g/L at start): 98.88%
Ethanol yield (0.5 g/L at start): 0.438 grams of ethanol/grams of added sugar
Initial Growth (OD at 24 h) % Control (0.5 g/L at start): 108.77%
Initial Growth (OD at 24 h) OD (0.5 g/L at start): 10.86 OD
Maximum Cell Density % Control (0.5 g/L at start): 107.97%
Maximum Cell Density OD (0.5 g/L at start): 11.92 OD
Maximum Cell Density Time (0.5 g/L at start): 48 h
Time to completion (0.5 g/L at start): 48 h
Volumetric Productivity Average (0.5 g/L at start): 0.887 grams ethanol/(liter)(hour)
Volumetric Productivity Average % Control (0.5 g/L at start): 98.88%
Volumetric Productivity Maximum (0.5 g/L at start): 1.027 grams ethanol/(liter)(hour)
Volumetric Productivity Maximum % Control (0.5 g/L at start): 89.20%
ethanol production as compared to the control (0.5 g/L at the start): highest amount of ethanol production
initial growth and maximum cell density as compared to the control (0.5 g/L at the start): greatest initial growth and maximum cell density
Ethanol Production Maximum (0.75 g/L at start): 42.65 g/L
Ethanol Production Maximum % Control (0.75 g/L at start): 99.00%
Ethanol yield (0.75 g/L at start): 0.439 grams of ethanol/grams of added sugar
Initial Growth (OD at 24 h) % Control (0.75 g/L at start): 105.54%
Initial Growth (OD at 24 h) OD (0.75 g/L at start): 10.54 OD
Maximum Cell Density % Control (0.75 g/L at start): 110.94%
Maximum Cell Density OD (0.75 g/L at start): 12.25 OD
Maximum Cell Density Time (0.75 g/L at start): 48 h
Time to completion (0.75 g/L at start): 48 h
Volumetric Productivity Average (0.75 g/L at start): 0.889 grams ethanol/(liter)(hour)
Volumetric Productivity Average % Control (0.75 g/L at start): 99.00%
Volumetric Productivity Maximum (0.75 g/L at start): 0.916 grams ethanol/(liter)(hour)
Volumetric Productivity Maximum % Control (0.75 g/L at start): 79.50%
